# Assay: solubility of islatravir in PBS
# Type: physicochemical
# Settings: phosphate buffered saline (PBS), aqueous buffer, 37° C.
compound,measurement,value
"C#C[C@]1(CO)O[C@@H](n2cnc3c(N)nc(F)nc32)C[C@@H]1O [islatravir, 4′-ethynyl-2-fluoro-2′-deoxyadenosine]",solubility,1350 µg/mL

# — patent US20230310309A1, “INJECTABLE DEPOT COMPOSITIONS FOR THE DELIVERY OF ANTIVIRAL AGENTS” (Merck Sharp & Dohme LLC, priority 2020, published 2023)
